For data set [1], the system named is BP-17 phytase. As to the kind of experiment: Thermal inactivation of BP-17 phytase at 70° C. in the presence of stabilizing salts, residual activity by colorimetric assay. The format is biochemical, Buttiauxella sp. Conditions: for phytase activity state: 70° C. Here is the method: An experiment was performed to determine whether the addition of excipients during thermal stress conditions allows the phytase enzyme to retain its activity. A temperature was selected at which the phytase enzyme is completely inactivated in the absence of excipient after 30-minutes incubation. Excipient solutions were prepared at their highest solubility. then titrated from highest to lowest concentrations prior to their addition to the phytase UFC. The enzyme/excipient combinations were then exposed to a temperature of 70° C., and the residual activity was measured after 2, 5, 10, 20, 30, and 60-minutes incubation via a colorimetric activity assay
A 20% (or 1.41 M) sodium phosphate solution was prepared by dissolving 5 grams of sodium phosphate dibasic anhydrous into 25 mL of water. The pH was adjusted to 5.5 using concentrated phosphoric acid. A 25% (or 0.85 M) sodium citrate solution was prepared by dissolving 5 grams of sodium citrate dihydrate into 20 mL of water. The pH was adjusted to 5.5 using 80% citric acid.
A volume of 80 μL of the 20% sodium phosphate stock solution was added to the first well of 8 different 12-well PCR strips. A volume of 40 μL of −Q water was added to wells 2, 3. 4, 5, and 6 of each PCR strip. The sodium phosphate stock solution was serially diluted 2-fold sequentially from well 1 to well 6. A volume of 80 μL of the 25% sodium citrate stock solution was added to well 7 of each PCR strip. A volume of 40 μL of water was added to wells 8, 9, 10, 11, and 12 of each PCR strip. The sodium citrate stock solution was serially diluted 2-fold sequentially from well 7 to well 11, leaving well 12 to contain water only. The BP-17 phytase UFC was diluted 50-fold in autoclaved water. A volume of 40 μL of the diluted UFC was added to each well of the 8 different 12-well PCR strips containing the diluted excipients.
The temperature cycler was programmed to a temperature of 70° C. One PCR strip was sealed and placed immediately on ice for the time zero measurement. The remaining PCR strips were sealed, placed inside the PCR, incubated for varying increments of time (0.5, 2, 5, 10, 20, 30, and 60 minutes), then removed from the PCR and placed immediately on ice. After each of the PCR strips had been collected on ice, they were placed on a 96-well PCR tube rack and centrifuged for 2 minutes at 3500 rpm.
As some precipitation occurred during thermal inactivation, the PCR strips were subjected to centrifugation and the supernatant was removed and diluted with assay buffer (0.1 M acetate Buffer pH 5.5+0.05% w/v Tween 20) to a final activity of 0.012 FTU/mL in a non-binding (Corning 3641) 96-well plate. A volume of 40 μL was transferred from the enzyme dilution plate into a separate reaction plate (Costar 9017, medium binding). A volume of 40 μL of substrate (150 μM sodium phytate) was then added to each of the wells of the reaction plate. The reaction plate was sealed and incubated for 10 minutes at 25° C. and 900 rpm. A volume of 170 μL of Pi Blue stop/color reagent (POPB-500 by BioAssay Systems US) was then added to each well of the reaction plate to stop the reaction. The plate was sealed and incubated for 30 minutes at 25° C. and 400 rpm for color development, then read in a spectrophotometer at 620 nm.

Data set [2] relates to BP-17 phytase. As to the kind of experiment: Mechanism of inhibition: phytase activity with titrated substrate and titrated excipient (PNPP assay). The class given is biochemical, Buttiauxella sp. To be noted: ambient assay conditions (25° C.). Here is the method: Kinetic analysis was performed to determine the mechanism of stabilization of both the sodium phosphate and sodium citrate with respect to the phytase enzyme by measuring the activity of phytase in the presence of both titrated substrate and titrated excipient concentrations.
The BP-17 phytase UFC was diluted 7,000-fold in 0.1 M acetate buffer pH 5.5.
The substrate stock solution (400 mM) was prepared by dissolving 0.923 grams of 4-nitrophenyl phosphate di (tris) salt into 5 mL of 0.25 M acetate buffer pH 5.5. A volume of 200 μL of the substrate stock solution was added to columns 1 and 7 of a 96-well plate. A volume of 100 μL of 0.25 M acetate Buffer pH 5.5 was added to columns 2-6 and 8-12 of the same 96-well plate. Serial dilutions were performed by transferring 100 μL from column 1 into column 2 of the 96-well plate, and then repeating this dilution pattern across the plate to column 6 so that the following substrate concentrations were made: 400, 200, 100, 50, 25, and 12.5 mM. The same serial dilutions were performed across the second half of the plate from columns 7 to 12.
A 20% (or 1.41 M) sodium phosphate solution was prepared by dissolving 5 grams of sodium phosphate dibasic anhydrous into 25 mL of 0.1 M acetate buffer pH 5.5. […]

Data set [3] has as its system BP-17 phytase. As to the kind of experiment: Phytase melting temperature (Tm) in the presence of excipients, differential scanning fluorimetry (nanoDSF). The class given is physicochemical, Buttiauxella sp. Here is the method:
An experiment was performed to determine whether the addition of different excipients during thermal exposure increases the melting temperature of the phytase enzyme in the liquid state. Excipient solutions were prepared at their highest solubility, then titrated from highest to lowest concentrations prior to their addition to the phytase UFC. The enzyme/excipient combinations were then exposed to a temperature profile of 21-95° C., and the melting temperatures were measured via differential scanning fluorimetry. The concentration of phytase in the UFC was measured at 123.9 g/L via HPLC. […] A 20% phytic acid solution was prepared by dissolving 1 gram of phytic acid into 5 mL of 0.1 M acetate buffer pH 5.5. The pH was adjusted from 4.2 to 5.47 using 20% NaOH, and then the solution was filtered using a 0.45 μM syringeless filter. A 25% sodium sulfate anhydrous solution was prepared by dissolving 5 grams into 20 mL of water. The pH was adjusted to 5.6 using sulfuric acid, and then the solution was filtered using a 0.45 μM syringeless filter. A 20% sodium polyphosphate solution was prepared by dissolving 5 grams into 25 mL of water. The pH was adjusted to 5.6 using concentrated phosphoric acid, and then the solution was filtered using a […] syringeless filter. […] The pH was adjusted to 5.6 using 80% citric acid, and then the solution was filtered using a 0.45 μM syringeless filter. A 20% sodium phosphate dibasic solution was prepared by dissolving 2 grams into 10 mL of water. The pH was adjusted to 5.6 using concentrated phosphoric acid, and then the solution was filtered using a 0.45 μM syringeless filter. A volume of 100 μL of an excipient stock solution was added to well A in column 1 of a 96-well plate. A volume of 50 μL of water was added to each well B-H in column 1 of the same 96-well plate. The excipient stock solution was titrated 2-fold down the column of the plate by transferring 50 μL into each subsequent well. A volume of 80 μL of the pH adjusted UFC was added to each of the wells in column 1 of a new 96-well plate. A volume of 20 μL was transferred from each well of the titrated excipient directly into the corresponding well containing the UFC. The 96-well plate containing the enzyme and excipient combinations was mixed on a plate shaker for 5 seconds. Standard capillaries for the nanoDSF were filled by dipping a capillary in each well of the 96-well plate, and then loading onto the Nanotemper instrument. The Nanotemper instrument was programmed to run at 10% excitation power and 21-95° C. with a 1° C./minute ramp. The Nanotemper instrument monitors the shift of intrinsic tryptophan fluorescence of proteins upon unfolding by measuring wavelengths at 330 and 350 nm.

Where a name gives a salt, the structure may show the parent alone.

With `O.O.O=C([O-])CC(O)(CC(=O)[O-])C(=O)[O-].[Na+].[Na+].[Na+]` [sodium citrate, Sodium citrate dihydrate, reference compound], the phytase activity retained result is reported as “approximately 90%” with BP-17 phytase [1] (425 mM sodium citrate, 60-minutes incubation at 70° C., FIG. 7) and no more than 50% with BP-17 phytase [1] (half of 425 mM sodium citrate, 60-minutes incubation at 70° C., FIG. 7). Moreover, the phytase activity state entry in the data set with BP-17 phytase [1] (sodium citrate below half of 425 mM, FIG. 7) was “inactivated”. The “excipient concentration at which phytase activity loss levels out” value with BP-17 phytase [2] (increasing phytic acid substrate, FIG. 9) is recorded as no less than 26 mM.

For `O=P([O-])([O-])O.[Na+].[Na+]` [sodium phosphate, Sodium phosphate, dibasic, anhydrous], the “stabilizing effect on Tm compared with other excipients” value with BP-17 phytase [3] (equivalent molar ratios to the phytase, normalized for anion equivalents, FIG. 4) is “greater than that of sodium phytate, sodium polyphosphate, and sodium sulfate”. For the same compound, the “increase in melting temperature of phytase” value with BP-17 phytase [3] (molar ratio of 130:1 sodium phosphate to phytase, phytase UFC, liquid state, FIGS. 2 and 3) was “approximately 5.5 °C”. For the same compound, the “increase in melting temperature compared with citrate” value with BP-17 phytase [3] (normalized for charge equivalents, FIG. 5) is reported as “much higher”. For the same compound, the “relative residual phytase activity retained” value in the data set with BP-17 phytase [1] (352 mM sodium phosphate, 60-minutes incubation at 70° C., FIG. 6) is “approximately 90%”. The phytase activity retained entry in the data set on BP-17 phytase [1] (half of 352 mM sodium phosphate, 60-minutes incubation at 70° C., FIG. 6) is reported as “approximately 60%”. The phytase activity state entry with BP-17 phytase [1] (sodium phosphate below half of 352 mM, FIG. 6) is listed as “nearly inactivated”. In the data set on BP-17 phytase [2] (150 mM sodium phosphate and 100 mM phytic acid substrate, FIG. 8), the “phytase activity in presence of excipient and substrate” value is given as “very little activity”.

As for `O=P(O)(O)O[C@H]1[C@H](OP(=O)(O)O)[C@@H](OP(=O)(O)O)[C@H](OP(=O)(O)O)[C@@H](OP(=O)(O)O)[C@H]1OP(=O)(O)O` [sodium phytate, Phytic acid sodium salt hydrate, reference compound], the “increase in Tm of phytase” value in the data set on BP-17 phytase [3] (molar ratio of 14:1 sodium phytate to phytase, phytase UFC, liquid state, FIG. 1) is “approximately 2.7 °C”.

These data come from patent US12570970B2, “Inorganic phosphate as a stabilizer for phytase enzymes” (DANISCO US INC, priority 2018, dated 2026).
